Results as given in ChEMBL document CHEMBL3396996, “Catechol-based substrates of chalcone synthase as a scaffold for novel inhibitors of PqsD” (Eur J Med Chem, 2015).
The source made the active and inactive calls. No cut-off for these calls is given here.

Tests used:
[1] = molecular target: T1, 2-heptyl-4(1H)-quinolone synthase PqsD (Pseudomonas aeruginosa) (UniProt A0A0C7ACN7); assay: Binding affinity to Pseudomonas aeruginosa recombinant his6-tagged PqsD expressed in Escherichia coli BL21 (lambdaDE3) at 250 to 500 uM by SPR analysis
T1 sequence (whole entry): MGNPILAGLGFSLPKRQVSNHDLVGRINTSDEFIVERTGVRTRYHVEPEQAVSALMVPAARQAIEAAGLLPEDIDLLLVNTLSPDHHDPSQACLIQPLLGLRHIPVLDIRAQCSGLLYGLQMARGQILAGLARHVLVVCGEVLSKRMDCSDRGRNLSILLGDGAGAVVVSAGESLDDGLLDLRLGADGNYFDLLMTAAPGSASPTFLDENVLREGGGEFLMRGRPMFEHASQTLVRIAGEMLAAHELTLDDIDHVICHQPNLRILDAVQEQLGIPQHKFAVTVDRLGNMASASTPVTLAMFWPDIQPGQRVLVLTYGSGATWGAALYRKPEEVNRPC

[2] = molecular target: T2, 2-heptyl-4(1H)-quinolone synthase PqsD (Pseudomonas aeruginosa, UniProt A0A0C7ACN7); assay: Inhibition of Pseudomonas aeruginosa recombinant PqsD expressed in Escherichia coli BL21 (lambdaDE3) using ACoA/beta-ketodecanoic acid as substrate after 10 mins
T2 sequence (A0A0C7ACN7 whole entry): T1 sequence (whole entry)

[3] = tested on: Pseudomonas aeruginosa PA14; assay: Inhibition of Pseudomonas aeruginosa PA14 PqsH transposon mutant assessed as extracellular level of HHQ at 250 uM after 16 hrs
[4] = molecular target: T1, 2-heptyl-4(1H)-quinolone synthase PqsD (Pseudomonas aeruginosa); assay: Inhibition of Pseudomonas aeruginosa recombinant PqsD expressed in Escherichia coli BL21 (lambdaDE3) using ACoA/beta-ketodecanoic acid as substrate at 50 uM after 10 mins
[5] = molecular target: T1, 2-heptyl-4(1H)-quinolone synthase PqsD (Pseudomonas aeruginosa); assay: Binding affinity to Pseudomonas aeruginosa recombinant his6-tagged PqsD expressed in Escherichia coli BL21 (lambdaDE3) using AcoA as substrate at 250 to 500 uM incubated for 40 mins prior to compound addition followed by wash out for 30 mins by SPR analysis
[6] = tested on: Pseudomonas aeruginosa PA14; assay: Inhibition of Pseudomonas aeruginosa PA14 PqsH transposon mutant assessed as extracellular level of HHQ after 16 hrs
[7] = tested on: Pseudomonas aeruginosa PA14; assay: Inhibition of Pseudomonas aeruginosa PA14 PqsH transposon mutant assessed as extracellular level of HHQ at 500 uM after 16 hrs

SMILES | IC50 [2] [µM] | inhibition [3] [%] | inhibition [4] [%] | other results
O=C(CCc1ccc(O)c(O)c1)OCc1ccccc1 | 5.9 | < 10 | – | Activity [1]: Active
COC(=O)CCc1ccc(N)cc1 | – | – | < 10 | –
COC(=O)/C=C/c1ccc(F)c(F)c1 | – | < 10 | < 10 | –
O=C(O)/C=C/c1ccc(O)cc1 | – | < 10 | 30 | –
COC(=O)CCc1ccc([N+](=O)[O-])cc1 | – | – | < 10 | –
COC(=O)/C=C/c1ccc(O)cc1 | – | < 10 | 22 | Activity [5]: inactive
COC(=O)CCCc1ccc(O)c(O)c1 | 7.9 | – | – | Activity [1]: Active; Activity [6]: 18 µM
CCOC(=O)CCc1ccc(O)c(O)c1 | 14 | – | – | Activity [6]: 17 µM
COc1cc(/C=C/C(=O)O)ccc1O | – | – | < 10 | –
COC(=O)CCc1ccc2c(c1)OCO2 | – | < 10 | 37 | –
CNC(=O)CCc1ccc(O)c(O)c1 | 20 | < 10 | – | –
COC(=O)/C=C/c1ccc(O)c(O)c1 [METHYLCAFFEATE] | 51 | – | – | Activity [6]: 31 µM; Activity [5]: inactive
COC(=O)CCc1ccc(C)cc1 | – | – | < 10 | –
O=C(O)/C=C/c1ccc(F)c(F)c1 | – | – | 18 | –
O=C(O)/C=C/c1cccc(O)c1 | – | – | < 10 | –
O=C(O)/C=C/c1ccsc1 | – | < 10 | 12 | –
O=C(O)/C=C/c1ccccc1 | – | < 10 | 33 | –
COC(=O)/C=C/c1ccccc1 | – | – | < 10 | Activity [5]: inactive
O=C(O)/C=C/c1ccc(O)c(O)c1 | – | – | 26 | inhibition [7]: 10%
COC(=O)Cc1ccc(O)c(O)c1 | 23 | – | – | Activity [6]: 24 µM
CC(C)OC(=O)CCc1ccc(O)c(O)c1 | 8.6 | – | – | Activity [1]: Active; Activity [6]: 16 µM
O=C(O)CCc1ccc(O)c(O)c1 [DIHYDROCAFFEIC ACID] | 27 | < 10 | – | –
COC(=O)CCc1ccc(O)cc1 | – | – | < 10 | –
COC(=O)CCc1ccc(O)c(O)c1 | 23 | – | – | Activity [6]: 17 µM
O=C(O)/C=C/c1ccoc1 | – | – | 12 | –
